Ends that are not written are not given here.

The test system of assay [1] is PBMC from RA patients. Kind of assay: Proliferative responses of PBMC from RA patients ([3H]thymidine incorporation). It is filed as cell-based, human. The conditions noted are these: peptide 50 μg/ml, mean of three or four measurements.
Assay [2] concerns the target T1, HLA-DR4 (DRB1*0401) molecules, affinity purified (human).
T1 construct: mature; Used at 0.05-5 uM in the assay
Kind of assay: semi-quantitative competition with biotinylated IHA(307-319)F for purified HLA-DR; relative IC50 grade read by eye from ECL blot.

Assay [3] deals with T1, HLA-DR4 (DRB1*0401) molecules, affinity …. Kind of assay: semi-quantitative competition with biotinylated IHA(307-319)F for purified HLA-DR; range taken from the table legend for grade +.
Assay [4] has the same target. Kind of assay: semi-quantitative competition with biotinylated IHA(307-319)F for purified HLA-DR; range taken from the table legend for grade ++.

Take AGWLADGSLRYPI [HAG3]: the “Proliferative response of PBMC, [3H]TdR incorporation” value is recorded as 233 count per 5 min in assay [1] (donor 191 (RA), background 320) and 1094 count per 5 min in assay [1] (donor 209 (RA), background 405).
On the same counts, the results for AGWLADRSVRYPI [HAG2] are 1061 count per 5 min and 1115 count per 5 min.
Regarding AGWLSDGSVQYPI [HCLP1], the “Proliferative response of PBMC, [3H]TdR incorporation” value turned out to be 1503 count per 5 min in assay [1] (donor 209 (RA), background 405) and 1964 count per 5 min in assay [1] (donor 227 (RA), background 833).

B1: HCLP1 (peptide)
peptide: AGWLSDGSVQYPI
notes: also called HCIP1
B1: the “relative binding affinity IC50 (eIC50)” value in assay [2] fell in the range of 10 to 100 µM. In addition, the IC50 in assay [3] was 10 to 100 µM.

B2: HAG2 (peptide)
peptide: H-AGWLADRSVRYPI-OH
notes: Synthetic peptide with free amino and carboxy termini; The residue range on HAG is not tied to this label
On to B2, for which the IC50 in assay [4] was 1 to 10 µM. In addition, in assay [2], the “relative binding affinity IC50 (eIC50)” value lay in the range of 1 to 10 µM.

B3: HAG3 (peptide)
peptide: H-AGWLADGSLRYPI-OH
notes: as for B2
B3 registered an IC50 in assay [4] of 1 to 10 µM. Also, the “relative binding affinity IC50 (eIC50)” value in assay [2] lay in the range of 1 to 10 µM.
